The text below walks through data of ChEMBL document CHEMBL4732240, “Synthesis and antibacterial evaluation of new monobactams” (2021).

SMILES strings stand for the structures. ≈ marks a conversion by molar mass, not a printed value.

What all share (assay type): functional
For assay [1], the system named is Enterobacter cloacae. The assay is described as follows: Antibacterial activity against Enterobacter cloacae clinical isolate assessed as reduction in bacterial growth by CLSI based broth microdilution method.
In assay [2] the test system is Enterobacter cloacae. Briefly: Antibacterial activity against Enterobacter cloacae 700323 assessed as reduction in bacterial growth by CLSI based broth microdilution method.
Assay [3] deals with Escherichia coli. The assay is described as follows: Antibacterial activity against Escherichia coli clinical isolate assessed as reduction in bacterial growth by CLSI based broth microdilution method.
The test system of assay [4] is Klebsiella pneumoniae. The assay is described as follows: Antibacterial activity against Klebsiella pneumoniae clinical isolate assessed as reduction in bacterial growth by CLSI based broth microdilution method.
The subject of assay [5] is Pseudomonas aeruginosa. Briefly: Antibacterial activity against Pseudomonas aeruginosa 9027 assessed as reduction in bacterial growth by CLSI based broth microdilution method.
Assay [6] deals with Acinetobacter baumannii. The assay is described as follows: Antibacterial activity against Acinetobacter baumannii clinical isolate assessed as reduction in bacterial growth by CLSI based broth microdilution method.
Assay [7] has as its system Escherichia coli. The assay is described as follows: Antibacterial activity against Escherichia coli ATCC 8739 assessed as reduction in bacterial growth by CLSI based broth microdilution method.
Assay [8] has as its system Klebsiella pneumoniae. The assay is described as follows: Antibacterial activity against Klebsiella pneumoniae 700603 assessed as reduction in bacterial growth by CLSI based broth microdilution method.
In assay [9] the test system is Pseudomonas aeruginosa. Briefly: Antibacterial activity against Pseudomonas aeruginosa clinical isolate. assessed as reduction in bacterial growth by CLSI based broth microdilution method.
For assay [10], the system named is Acinetobacter baumannii. The assay is described as follows: Antibacterial activity against Acinetobacter baumannii ATCC 19606 assessed as reduction in bacterial growth by CLSI based broth microdilution method. The conditions noted are these: ATCC 19606 = CIP 70.34 = JCM 6841.

In the case of `CC1(C)[C@H](NC(=O)/C(=N/O[C@@H](COc2ccc(NC(=O)N[C@H]3CCCNC3)cc2)C(=O)O)c2csc(N)n2)C(=O)N1OS(=O)(=O)O`, the minimal inhibitory concentration (MIC) with Enterobacter cloacae [1] is 64 µg/mL (≈ 93.5 µM); in the assay on Enterobacter cloacae [2], 16 µg/mL (≈ 23.4 µM); in the assay with Escherichia coli [3], 32 µg/mL (≈ 46.7 µM); in the assay on Klebsiella pneumoniae [4] it was 32 µg/mL (≈ 46.7 µM); in the assay on Pseudomonas aeruginosa [5] it was 32 µg/mL (≈ 46.7 µM); with Acinetobacter baumannii [6], over 64 µg/mL. Further, the minimal inhibitory concentration (MIC) in the assay with Escherichia coli [7] was 4 µg/mL (≈ 5.84 µM); in the assay on Klebsiella pneumoniae [8] it was over 64 µg/mL; in the assay on Pseudomonas aeruginosa [9] it was 64 µg/mL (≈ 93.5 µM); in the assay on Acinetobacter baumannii [10] it was over 64 µg/mL.
For the molecule `CC1(C)[C@H](NC(=O)/C(=N\O[C@@H](COc2ccc(NC(=O)N[C@@H]3CCCNC3)cc2)C(=O)O)c2csc(N)n2)C(=O)N1OS(=O)(=O)O`, the MIC in the assay with Enterobacter cloacae [1] is 2 µg/mL (≈ 2.92 µM); in the assay on Enterobacter cloacae [2], 16 µg/mL (≈ 23.4 µM); in the assay with Escherichia coli [3], 0.5 µg/mL (≈ 0.73 µM); in the assay with Klebsiella pneumoniae [4], 0.5 µg/mL (≈ 0.73 µM); in the assay with Pseudomonas aeruginosa [5], 2 µg/mL (≈ 2.92 µM); with Acinetobacter baumannii [6], 16 µg/mL (≈ 23.4 µM). Also, the minimum inhibitory concentration (MIC) with Escherichia coli [7] was 0.25 µg/mL (≈ 0.365 µM); in the assay on Klebsiella pneumoniae [8], 8 µg/mL (≈ 11.7 µM); with Pseudomonas aeruginosa [9], 8 µg/mL (≈ 11.7 µM); in the assay with Acinetobacter baumannii [10], 8 µg/mL (≈ 11.7 µM).
Turning to `CC1(C)[C@H](NC(=O)/C(=N/O[C@@H](COc2ccc(NC(=O)NC3CCNCC3)cc2)C(=O)O)c2csc(N)n2)C(=O)N1OS(=O)(=O)O`, the minimal inhibitory concentration (MIC) was 32 µg/mL (≈ 46.7 µM) in the assay on Enterobacter cloacae [1]; over 64 µg/mL in the assay with Enterobacter cloacae [2]; 2 µg/mL (≈ 2.92 µM) in the assay on Escherichia coli [3]; 8 µg/mL (≈ 11.7 µM) with Klebsiella pneumoniae [4]; 16 µg/mL (≈ 23.4 µM) with Pseudomonas aeruginosa [5]; over 64 µg/mL in the assay on Acinetobacter baumannii [6]. The minimum inhibitory concentration (MIC) in the assay with Escherichia coli [7] was 4 µg/mL (≈ 5.84 µM); with Klebsiella pneumoniae [8], over 64 µg/mL; with Pseudomonas aeruginosa [9] it was 16 µg/mL (≈ 23.4 µM); in the assay on Acinetobacter baumannii [10] it was over 64 µg/mL.
As to `CC1(C)[C@H](NC(=O)/C(=N\O[C@@H](COc2ccc(NC(=O)NC3CCNCC3)cc2)C(=O)O)c2csc(N)n2)C(=O)N1OS(=O)(=O)O`, the minimal inhibitory concentration (MIC) in the assay with Enterobacter cloacae [1] turned out to be 4 µg/mL (≈ 5.84 µM); in the assay with Enterobacter cloacae [2], 32 µg/mL (≈ 46.7 µM); in the assay on Escherichia coli [3] it was 1 µg/mL (≈ 1.46 µM); in the assay with Klebsiella pneumoniae [4], 1 µg/mL (≈ 1.46 µM); in the assay on Pseudomonas aeruginosa [5], 2 µg/mL (≈ 2.92 µM); in the assay with Acinetobacter baumannii [6] it was 64 µg/mL (≈ 93.5 µM). Moreover, the minimum inhibitory concentration (MIC) in the assay with Escherichia coli [7] worked out at 0.25 µg/mL (≈ 0.365 µM); with Klebsiella pneumoniae [8], 32 µg/mL (≈ 46.7 µM); with Pseudomonas aeruginosa [9], 4 µg/mL (≈ 5.84 µM); with Acinetobacter baumannii [10], 16 µg/mL (≈ 23.4 µM).
Turning to `CC1(C)[C@H](NC(=O)/C(=N/O[C@@H](COc2ccc(NC(=O)N[C@@H]3CCCNC3)cc2)C(=O)O)c2csc(N)n2)C(=O)N1OS(=O)(=O)O`, the minimal inhibitory concentration (MIC) in the assay with Enterobacter cloacae [1] is 64 µg/mL (≈ 93.5 µM); with Enterobacter cloacae [2], 32 µg/mL (≈ 46.7 µM); with Escherichia coli [3] it was 32 µg/mL (≈ 46.7 µM); in the assay with Klebsiella pneumoniae [4], 32 µg/mL (≈ 46.7 µM); in the assay on Pseudomonas aeruginosa [5] it was 32 µg/mL (≈ 46.7 µM); in the assay with Acinetobacter baumannii [6], over 64 µg/mL. Moreover, the MIC with Escherichia coli [7] was 8 µg/mL (≈ 11.7 µM); with Klebsiella pneumoniae [8] it was over 64 µg/mL; in the assay on Pseudomonas aeruginosa [9], 64 µg/mL (≈ 93.5 µM); with Acinetobacter baumannii [10] it was over 64 µg/mL.
Take `CC1(C)[C@H](NC(=O)/C(=N\O[C@@H](COc2ccc(NC(=O)N[C@H]3CCCNC3)cc2)C(=O)O)c2csc(N)n2)C(=O)N1OS(=O)(=O)O`: the minimal inhibitory concentration (MIC) with Enterobacter cloacae [1] worked out at 4 µg/mL (≈ 5.84 µM); in the assay with Enterobacter cloacae [2], 32 µg/mL (≈ 46.7 µM); with Escherichia coli [3], 8 µg/mL (≈ 11.7 µM); in the assay with Klebsiella pneumoniae [4], 1 µg/mL (≈ 1.46 µM); in the assay on Pseudomonas aeruginosa [5] it was 2 µg/mL (≈ 2.92 µM); with Acinetobacter baumannii [6], 64 µg/mL (≈ 93.5 µM). In addition, the MIC with Escherichia coli [7] amounted to 0.25 µg/mL (≈ 0.365 µM); with Klebsiella pneumoniae [8] it was 32 µg/mL (≈ 46.7 µM); with Pseudomonas aeruginosa [9], 2 µg/mL (≈ 2.92 µM); with Acinetobacter baumannii [10], 32 µg/mL (≈ 46.7 µM).
